Among the test systems are A498; ACHN; CCRF-CEM; COLO 205; EKVX; K562; KM12; LOX IMVI; MCF7; MDA-MB-435; NCI-H23; OVCAR-3; RXF 393; SF-268; SF-295; SN12C; SNB-75; TK-10; U-251; UACC-62.
What all share (assay): NCI-60 cell line screen, 48 h

Here are results for ten compounds from ChEMBL document CHEMBL1201862, “PubChem BioAssay data set” (2004).

Each structure is given as a SMILES string.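 Growth conditions: 96-well plates. Treatment: test compound, 48 hours, 5 concentrations. Analysis: linear interpolation between bracketing concentrations; unreached endpoints set to highest concentration. At the GI50, growth is halved.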 Calls of active or inactive are those of the source. No stated cut-off is given here; in the data, active = GI50 up to about 1.1 µM and inactive = higher.

`C=C1CC/C=C(\C)CCC[C@H](C)[C@@H](O)[C@@H]2OC(=O)C(=C)[C@@H]2C[C@H]1O`: the GI50 with A498 was 66.4 µM (inactive); in the assay on ACHN, 2.73 µM (inactive); in the assay on CCRF-CEM, 1.14 µM (inactive); in the assay with COLO 205, 2.83 µM (inactive); with EKVX, 5.73 µM (inactive); in the assay with K562 it was 2.99 µM (inactive). Further, the GI50 with KM12 is 15 µM (inactive); in the assay with LOX IMVI it was 3.69 µM (inactive); in the assay on MCF7, 4 µM (inactive); with MDA-MB-435, 3.62 µM (inactive); in the assay on NCI-H23 it was 12.5 µM (inactive); with OVCAR-3, 9.12 µM (inactive). Moreover, the GI50 is 4.25 µM (inactive) in the assay with RXF 393; 8.26 µM (inactive) in the assay on SF-268; 17.2 µM (inactive) in the assay with SF-295; 5.93 µM (inactive) with SN12C; 12 µM (inactive) in the assay with SNB-75; 1.49 µM (inactive) with TK-10. The GI50 in the assay with U-251 was 18.1 µM (inactive); in the assay on UACC-62, 8.91 µM (inactive).

`O=C(Nc1sccc1S(=O)(=O)c1ccc(Cl)cc1)c1ccccc1`: the GI50 in the assay with A498, in the assay with ACHN, in the assay on CCRF-CEM, with COLO 205, with EKVX and with K562 was > 100 µM (inactive) each time. Also, the GI50 in the assay with KM12, in the assay with LOX IMVI, in the assay on MCF7, in the assay with MDA-MB-435, with NCI-H23 and in the assay with OVCAR-3 was > 100 µM (inactive) throughout. Moreover, the GI50 was > 100 µM (inactive) with RXF 393; > 100 µM (inactive) in the assay on SF-268; > 100 µM (inactive) with SF-295; > 100 µM (inactive) with SN12C; 98.6 µM (inactive) in the assay on SNB-75; 40.1 µM (inactive) in the assay on TK-10. The GI50 in the assay on U-251 and in the assay on UACC-62 was > 100 µM (inactive) in each case.

Regarding `O=CC(I)=C(c1ccccc1)c1ccccc1`, the GI50 is 20.7 µM (inactive) with A498; 20.7 µM (inactive) in the assay on ACHN; 15.3 µM (inactive) with CCRF-CEM; 18.3 µM (inactive) with COLO 205; 18.9 µM (inactive) with EKVX; 18.5 µM (inactive) in the assay with K562. Besides, the GI50 is 15 µM (inactive) in the assay on KM12; 9.51 µM (inactive) in the assay on LOX IMVI; 16.3 µM (inactive) in the assay with MCF7; 17 µM (inactive) in the assay with MDA-MB-435; 19.6 µM (inactive) with NCI-H23; 13.2 µM (inactive) with OVCAR-3. In addition, the GI50 is 15.1 µM (inactive) in the assay with RXF 393; 21.3 µM (inactive) in the assay on SF-268; 17.3 µM (inactive) with SF-295; 20.7 µM (inactive) in the assay with SN12C; 17.1 µM (inactive) in the assay with SNB-75; 19.5 µM (inactive) in the assay on TK-10. For the same compound, the GI50 in the assay on U-251 was 15.1 µM (inactive); in the assay with UACC-62, 16.5 µM (inactive).

On to `Cn1c(=O)oc2cc(C(=S)N3CCC(Cc4ccccc4)CC3)ccc21`, for which the GI50 in the assay with A498 is > 100 µM (inactive); with ACHN, > 100 µM (inactive); with CCRF-CEM, > 100 µM (inactive); in the assay with COLO 205, > 100 µM (inactive); in the assay on EKVX it was > 100 µM (inactive); in the assay on K562, 61.7 µM (inactive). The GI50 in the assay on KM12 was > 100 µM (inactive); with LOX IMVI it was > 100 µM (inactive); in the assay on MCF7 it was > 100 µM (inactive); with MDA-MB-435, 91.8 µM (inactive); with NCI-H23, > 100 µM (inactive); in the assay with OVCAR-3 it was > 100 µM (inactive). For the same compound, the GI50 is > 100 µM (inactive) with RXF 393; > 100 µM (inactive) with SF-268; > 100 µM (inactive) with SF-295; > 100 µM (inactive) in the assay with SN12C; 55.6 µM (inactive) in the assay on SNB-75; > 100 µM (inactive) in the assay on TK-10. Also, the GI50 was 64.7 µM (inactive) in the assay with U-251 and > 100 µM (inactive) with UACC-62.

In the case of `CCOC1C=CC(=O)C(CO)O1` (stereo not given), the GI50 in the assay on A498 was 26.2 µM (inactive); in the assay on ACHN, 10.8 µM (inactive); in the assay on CCRF-CEM it was 1.88 µM (inactive); in the assay on COLO 205 it was 13.4 µM (inactive); in the assay on EKVX it was 14.3 µM (inactive); in the assay on K562 it was 6.67 µM (inactive). In addition, the GI50 in the assay on KM12 was 16.4 µM (inactive); in the assay with LOX IMVI, 5.58 µM (inactive); in the assay on MCF7, 4.68 µM (inactive); in the assay on MDA-MB-435, 12.2 µM (inactive); in the assay with NCI-H23, 12.6 µM (inactive); in the assay with OVCAR-3, 6.73 µM (inactive). Moreover, the GI50 with RXF 393 is 7.55 µM (inactive); in the assay with SF-268 it was 14.1 µM (inactive); in the assay on SF-295, 17.9 µM (inactive); in the assay with SN12C, 13.3 µM (inactive); in the assay with SNB-75, 15.3 µM (inactive); in the assay with TK-10, 8.43 µM (inactive). The GI50 in the assay with U-251 was 12.7 µM (inactive); with UACC-62, 12.4 µM (inactive).

As for `Cc1ccc(C(=O)c2[nH]c(NCc3ccccc3)c(C(=S)Nc3ccccc3)c2N)cc1`, the GI50 in the assay on A498 is 17 µM (inactive); with ACHN it was 11.4 µM (inactive); in the assay with CCRF-CEM it was 5.16 µM (inactive); with COLO 205, 3.87 µM (inactive); with EKVX, 13.6 µM (inactive); in the assay with K562, 2.13 µM (inactive). Besides, the GI50 was 2.28 µM (inactive) in the assay on KM12; 2.01 µM (inactive) in the assay on LOX IMVI; 2.88 µM (inactive) with MCF7; 3.28 µM (inactive) with MDA-MB-435; 13.3 µM (inactive) with NCI-H23; 11.8 µM (inactive) with OVCAR-3. Further, the GI50 in the assay on RXF 393 is 5.78 µM (inactive); with SF-268 it was 12.9 µM (inactive); in the assay with SF-295 it was 5.06 µM (inactive); in the assay on SN12C, 14.5 µM (inactive); in the assay with SNB-75, 4.85 µM (inactive); in the assay with TK-10, 11.2 µM (inactive). The GI50 is 4.04 µM (inactive) in the assay with U-251 and 11.8 µM (inactive) with UACC-62.

Consider `Cc1c2cc[n+](C)cc2c(C)c2c1sc1ccccc12`, for which the GI50 in the assay with A498 is 1.45 µM (inactive); in the assay on ACHN, 4.7 µM (inactive); with CCRF-CEM it was 0.776 µM (active); in the assay with COLO 205 it was 1.07 µM (active); in the assay with EKVX, 3.01 µM (inactive); in the assay on K562, 2.26 µM (inactive). Besides, the GI50 with KM12 was 0.457 µM (active); in the assay with LOX IMVI, 4.06 µM (inactive); in the assay with MCF7, 1.3 µM (inactive); in the assay with MDA-MB-435 it was 2.05 µM (inactive); in the assay with NCI-H23 it was 0.528 µM (active); in the assay with OVCAR-3, 1.29 µM (inactive). The GI50 was 1.56 µM (inactive) in the assay with RXF 393; 0.199 µM (active) with SF-268; 0.143 µM (active) with SF-295; 0.132 µM (active) with SN12C; 0.199 µM (active) in the assay on SNB-75; 13.4 µM (inactive) in the assay with TK-10. The GI50 in the assay with U-251 was 0.114 µM (active); in the assay with UACC-62 it was 1.63 µM (inactive).

In the case of `O=C(/C(=C(/Br)I)c1ccccc1)c1ccccc1`, the GI50 was 15 µM (inactive) in the assay on A498; 29.4 µM (inactive) with ACHN; 5.56 µM (inactive) in the assay on CCRF-CEM; 17.6 µM (inactive) in the assay with COLO 205; 29 µM (inactive) in the assay with EKVX; 14.4 µM (inactive) in the assay with K562. For the same compound, the GI50 is 19.5 µM (inactive) in the assay with KM12; 13.9 µM (inactive) with LOX IMVI; 30.9 µM (inactive) in the assay on MCF7; 28.8 µM (inactive) with MDA-MB-435; 50.4 µM (inactive) in the assay on NCI-H23; 21.4 µM (inactive) in the assay with OVCAR-3. For the same compound, the GI50 was 16.8 µM (inactive) in the assay with RXF 393; 22.1 µM (inactive) in the assay with SF-268; 27.2 µM (inactive) with SF-295; 17.8 µM (inactive) with SN12C; 26.3 µM (inactive) in the assay with SNB-75; 27.2 µM (inactive) with TK-10. Besides, the GI50 in the assay with U-251 was 25.8 µM (inactive); in the assay on UACC-62, 18.4 µM (inactive).

`CC[C@H](C)[C@H]1NC(=O)[C@@H](NC(=O)[C@@H](CC(C)C)N(C)C(=O)C2CCCN2C(=O)[C@H](C)O)[C@@H](C)OC(=O)[C@H](Cc2ccccc2)N(C)C(=O)[C@@H]2CCCN2C(=O)[C@H](CC(C)C)NC(=O)[C@@H](C)C(=O)[C@H](C(C)C)OC(=O)C[C@@H]1O` (stereo not given in full): the GI50 in the assay on A498, in the assay with ACHN, with CCRF-CEM, in the assay on COLO 205, with EKVX and in the assay with K562 was < 0.00625 µM (active) in each case. Moreover, the GI50 with KM12, in the assay on LOX IMVI, in the assay with MCF7, with MDA-MB-435, in the assay on NCI-H23 and in the assay on OVCAR-3 was < 0.00625 µM (active) in each case. Also, the GI50 in the assay with RXF 393, in the assay with SF-268, in the assay with SF-295, in the assay with SN12C, with SNB-75 and in the assay on TK-10 was < 0.00625 µM (active) in each case. Further, the GI50 in the assay on U-251 and with UACC-62 was < 0.00625 µM (active) in each case.

On to `CCCCNc1nc(O)c2[nH]cnc2n1`, for which the GI50 in the assay on A498, in the assay with ACHN, with CCRF-CEM, in the assay on COLO 205, with EKVX and in the assay with K562 was > 100 µM (inactive) in each case. Moreover, the GI50 in the assay with KM12, in the assay with LOX IMVI, in the assay with MCF7, in the assay on MDA-MB-435, with NCI-H23 and in the assay with OVCAR-3 was > 100 µM (inactive) throughout. Besides, the GI50 in the assay on RXF 393, with SF-268, in the assay on SF-295, in the assay on SN12C, in the assay with SNB-75 and in the assay with TK-10 was > 100 µM (inactive) in each case. The GI50 in the assay with U-251 and with UACC-62 was > 100 µM (inactive) each time.
